# Measurements reported in ChEMBL document CHEMBL1201862, “PubChem BioAssay data set” (2004).
#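 Interpolation was linear, between the two tested concentrations surrounding the appropriate level; five concentrations were tested over 48 hours in 96-well plates. The concentration for 50% growth inhibition is given as GI50.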 Calls of active or inactive are those of the source. No stated cut-off is given here; in the data, active = GI50 up to about 1.1 µM and inactive = higher.
# Tests used:
# Assay in all cases: inhibition of tumour cell growth, NCI panel, 48 h
# HOP-18 = tested on: HOP-18
# DMS-273 = tested on: DMS-273
# SNB-78 = tested on: SNB-78
# KM-20L2 = tested on: KM-20L2
# M19-MEL = tested on: M19-MEL
# DLD-1 = tested on: DLD-1
# DMS-114 = tested on: DMS-114
# RXF 631 = tested on: RXF 631
# XF498 = tested on: XF498
Compound,GI50 (HOP-18),GI50 (DMS-273),GI50 (SNB-78),GI50 (KM-20L2),GI50 (M19-MEL),GI50 (DLD-1),GI50 (DMS-114),GI50 (RXF 631),GI50 (XF498)
CC1(C)C2CCC3(C2)CS(=O)(=O)N2OC231 (centres undefined),17.6 µM (inactive),29.4 µM (inactive),25.5 µM (inactive),16.3 µM (inactive),15.7 µM (inactive),23.7 µM (inactive),12.2 µM (inactive),–,–
COCCCNC(=O)CC(=O)NCCCOC,> 100 µM (inactive),–,> 100 µM (inactive),> 100 µM (inactive),> 100 µM (inactive),> 100 µM (inactive),> 100 µM (inactive),> 100 µM (inactive),–
Cc1ccc([N+](=O)[O-])cc1NC(=O)/C(CC(=O)c1sc(C(N)=S)nc1C)=N\N,71.3 µM (inactive),29.7 µM (inactive),> 100 µM (inactive),> 100 µM (inactive),71.8 µM (inactive),> 100 µM (inactive),30.3 µM (inactive),31.5 µM (inactive),–
COc1cc2cccc(/N=C\c3ccccc3Cl)c2cc1OC,> 100 µM (inactive),–,> 100 µM (inactive),> 100 µM (inactive),> 100 µM (inactive),> 100 µM (inactive),35.2 µM (inactive),–,–
COC(=O)C(Cc1ccccc1)NC(=O)Cn1ccnc1[N+](=O)[O-] (centres undefined),67.8 µM (inactive),> 100 µM (inactive),–,> 100 µM (inactive),95.3 µM (inactive),–,> 100 µM (inactive),> 100 µM (inactive),> 100 µM (inactive)
CCOC(=O)N1N=NC2C3OC(C[C@@]3(C#N)OC(C)=O)[C@H]21 (some centres undefined),> 100 µM (inactive),> 100 µM (inactive),> 100 µM (inactive),> 100 µM (inactive),> 100 µM (inactive),> 100 µM (inactive),–,> 100 µM (inactive),> 100 µM (inactive)
N#Cc1nc(C2OC(COC(=O)c3ccccc3)C(OC(=O)c3ccccc3)C2OC(=O)c2ccccc2)oc1N (centres undefined),10.7 µM (inactive),26.4 µM (inactive),22 µM (inactive),39 µM (inactive),36.7 µM (inactive),37.2 µM (inactive),28.9 µM (inactive),–,–
COc1cc2c(cc1OC)C1Cc3cc(OC)c(OC)cc3N1CC2 (centres undefined),–,–,39.8 µM (inactive),38.6 µM (inactive),13.3 µM (inactive),39.8 µM (inactive),15.1 µM (inactive),–,18.5 µM (inactive)
Nc1nncc2c1c(Br)cn2C1OC(CO)C(O)C1O (centres undefined),> 67.6 µM (inactive),7.23 µM (inactive),> 66.4 µM (inactive),44 µM (inactive),> 100 µM (inactive),4.82 µM (inactive),9.35 µM (inactive),2.84 µM (inactive),> 41.7 µM (inactive)
C=C=C(Sc1ccccc1)C(C)(C)O,> 100 µM (inactive),–,–,> 100 µM (inactive),> 100 µM (inactive),> 100 µM (inactive),–,> 100 µM (inactive),> 100 µM (inactive)
CCOC(=O)C(C(=O)Cc1ccccc1)c1ccccc1 (centres undefined),–,–,> 100 µM (inactive),> 100 µM (inactive),> 100 µM (inactive),> 100 µM (inactive),–,–,> 100 µM (inactive)
CC(=O)c1c(O)c2c([nH]c1=O)CCCC2,> 100 µM (inactive),25.6 µM (inactive),> 100 µM (inactive),43.1 µM (inactive),21 µM (inactive),21.6 µM (inactive),25.4 µM (inactive),21.8 µM (inactive),64.6 µM (inactive)
O=C(Cc1ccccc1)N/N=C(/c1nc2ccc([N+](=O)[O-])cc2nc1O)C(O)c1ccc(C(O)/C(=N/NC(=O)Cc2ccccc2)c2nc3ccc([N+](=O)[O-])cc3nc2O)cc1 (centres undefined),–,–,–,12.4 µM (inactive),58.9 µM (inactive),56.8 µM (inactive),4.29 µM (inactive),51.3 µM (inactive),29.8 µM (inactive)
C/C(CC(=O)NC1=CC=C(NC(=O)C/C(C)=N\Nc2ccccc2)CC1)=N/Nc1ccccc1,> 100 µM (inactive),27 µM (inactive),> 100 µM (inactive),> 100 µM (inactive),> 100 µM (inactive),> 100 µM (inactive),> 100 µM (inactive),41.4 µM (inactive),> 100 µM (inactive)
Cc1ccc(C2=Nc3ccccc3[S+]([O-])C(c3ccc4c(c3)OCO4)C2)cc1 (centres undefined),> 100 µM (inactive),28.6 µM (inactive),24.7 µM (inactive),17.4 µM (inactive),27 µM (inactive),12.3 µM (inactive),–,–,16.5 µM (inactive)
N#CC1(C2CC(=O)N(c3ccccc3)C2=O)CCCCC1=O (centres undefined),> 100 µM (inactive),> 100 µM (inactive),> 100 µM (inactive),–,> 100 µM (inactive),> 100 µM (inactive),> 100 µM (inactive),> 100 µM (inactive),9.2 µM (inactive)
O=C(CCCCCCCCC(=O)OCC1OC(n2cnc3c(=O)[nH]cnc32)C(O)C1O)OCC1OC(n2cnc3c(=O)[nH]cnc32)C(O)C1O (centres undefined),> 100 µM (inactive),> 100 µM (inactive),> 100 µM (inactive),> 100 µM (inactive),> 100 µM (inactive),> 100 µM (inactive),> 100 µM (inactive),–,> 100 µM (inactive)
CCOC(=O)c1[nH]c2cc(OC)c(OC)cc2c1CN(C)C,–,–,> 100 µM (inactive),> 100 µM (inactive),–,> 100 µM (inactive),> 100 µM (inactive),–,–
CCNC(=O)O/N=C1\CCC2[C@@H]3CC=C4C[C@@H](OC5CCCCO5)CC[C@]4(C)C3CC[C@]12C (some centres undefined),1.42 µM (inactive),1.52 µM (inactive),2.24 µM (inactive),2.64 µM (inactive),1.76 µM (inactive),4.45 µM (inactive),1.26 µM (inactive),2.75 µM (inactive),–
CCN(CC)c1cccc2c1C1(O)CCC3(CC21)OCCCCO3 (centres undefined),> 100 µM (inactive),> 100 µM (inactive),> 100 µM (inactive),68.4 µM (inactive),91.4 µM (inactive),57.1 µM (inactive),94.6 µM (inactive),–,–
CCCCCC[C@@H]1CCC2C(CO)[C@@H](O)CC[C@@H]2C1 (some centres undefined),22.4 µM (inactive),20.2 µM (inactive),19.2 µM (inactive),18.4 µM (inactive),18.2 µM (inactive),18.8 µM (inactive),19.6 µM (inactive),–,24.7 µM (inactive)
Brc1ccccc1/C=N\C12CC3CC(CC(C3)C1)C2,> 100 µM (inactive),11.3 µM (inactive),> 91.4 µM (inactive),> 100 µM (inactive),> 76.6 µM (inactive),1.41 µM (inactive),5.77 µM (inactive),> 79.4 µM (inactive),> 100 µM (inactive)
O=C(CSc1nnc(Cc2ccccc2)o1)Nc1ccc(Cl)cc1Cl,> 100 µM (inactive),> 100 µM (inactive),> 100 µM (inactive),> 100 µM (inactive),> 100 µM (inactive),> 100 µM (inactive),> 100 µM (inactive),–,–
COc1cc(C(=O)NO)ccc1O,> 100 µM (inactive),> 100 µM (inactive),> 100 µM (inactive),> 100 µM (inactive),> 100 µM (inactive),> 100 µM (inactive),> 100 µM (inactive),–,–
CC(=O)c1ccc(NC(=O)C(=O)Nn2c(S)nc3ccccc3c2=O)cc1,> 100 µM (inactive),–,> 100 µM (inactive),> 100 µM (inactive),> 100 µM (inactive),> 100 µM (inactive),> 100 µM (inactive),–,> 100 µM (inactive)
O=C1C=C(Nc2cccnc2)c2ccccc2C1=O,10.3 µM (inactive),6.81 µM (inactive),15.5 µM (inactive),> 43.2 µM (inactive),–,5.11 µM (inactive),2.02 µM (inactive),–,–
C=CCNC(=S)N1CC(C)C(=O)Nc2ccccc21 (centres undefined),–,> 100 µM (inactive),> 100 µM (inactive),> 100 µM (inactive),–,–,> 100 µM (inactive),–,> 100 µM (inactive)
COCC(C#N)NC1CC(OC2CC(O)(C(=O)CO)Cc3c(O)c4c(c(O)c32)C(=O)c2c(OC)cccc2C4=O)OC(C)C1O (centres undefined),0.125 µM (active),0.0266 µM (active),0.235 µM (active),0.191 µM (active),0.0528 µM (active),0.2 µM (active),0.0361 µM (active),0.0716 µM (active),0.0427 µM (active)
CC(=O)c1cccc(NC(=O)/C(=N\NC(C)(C)C)c2c(O)c3ccccc3oc2=O)c1,> 100 µM (inactive),> 100 µM (inactive),–,> 100 µM (inactive),84.7 µM (inactive),> 100 µM (inactive),> 100 µM (inactive),–,> 100 µM (inactive)
Cc1occ2c1C(=O)CC1C2[C@@H](O)CC2C(C)(C)CCC[C@]12C (some centres undefined),> 100 µM (inactive),–,> 100 µM (inactive),> 100 µM (inactive),> 100 µM (inactive),> 100 µM (inactive),82.8 µM (inactive),–,> 100 µM (inactive)
